Source: ChEMBL document CHEMBL1201862, “PubChem BioAssay data set” (2004)
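Method: 48-hour compound exposure of cells in 96-well plates, five concentrations, linear interpolation of endpoints. GI50 is the concentration that inhibits growth by half.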 The source made the active and inactive calls. Cut-off read from the data, not from the text of the source: active = GI50 up to about 1.1 µM and inactive = higher.

Assays:
Test in all cases: inhibition of tumour cell growth, NCI panel, 48 h
[1] = system: 786-0
[2] = system: ACHN
[3] = system: BT-549
[4] = system: DU-145
[5] = system: HCT-15
[6] = system: HOP-92
[7] = system: K562
[8] = system: MCF7
[9] = system: Malme-3M
[10] = system: NCI-H23
[11] = system: OVCAR-4
[12] = system: RPMI-8226
[13] = system: SF-295
[14] = system: SF-539
[15] = system: SK-MEL-28
[16] = system: SK-OV-3
[17] = system: SN12C
[18] = system: SNB-19
[19] = system: T47D

Measured: GI50

O=C(Nn1c(-c2ccccc2)nc2ccccc2c1=O)c1ccc(Cl)cc1
inactive: [1] > 100 µM | [2] 94.2 µM | [3] > 100 µM | [4] > 100 µM | [6] 75.3 µM | [7] > 100 µM | [8] > 100 µM | [9] > 100 µM | [10] 95.1 µM | [11] 56.5 µM | [12] 76 µM | [13] > 100 µM | [14] > 100 µM | [15] > 100 µM | [16] > 100 µM | [17] > 100 µM | [18] > 100 µM | [19] 85.5 µM
> 100 µM: [5]

O=C1c2sccc2C(=O)c2c(CO)csc21
2.49 µM: [5]
inactive: [1] 3.94 µM | [2] 3.52 µM | [3] 3.59 µM | [4] 2.66 µM | [6] 7.5 µM | [7] 7.01 µM | [8] 5.12 µM | [9] 1.91 µM | [10] 2.07 µM | [11] 2.16 µM | [12] 5.26 µM | [13] 2.69 µM | [14] 3.65 µM | [15] 7.8 µM | [16] 11.4 µM | [17] 6.46 µM | [18] 5.56 µM | [19] 4.71 µM

C(/c1ccco1)=c1/nc(-c2ccccc2)n2c1nc1ccccc12
active: [19] 1.08 µM
97.3 µM: [5]
inactive: [1] 11 µM | [2] 21.9 µM | [3] 15.8 µM | [4] > 100 µM | [6] 38.1 µM | [7] 20.9 µM | [8] 42.6 µM | [9] 16.4 µM | [10] 35.2 µM | [11] 20.5 µM | [12] 11.2 µM | [13] 12.9 µM | [14] 24.3 µM | [16] 22.4 µM | [17] 37.4 µM | [18] > 100 µM

COC(=O)c1oc([N+](=O)[O-])c(Cl)c1Cl
inactive: [1] 4.14 µM | [2] 8.91 µM | [3] 7.98 µM | [4] 17.6 µM | [6] 20 µM | [7] 2.56 µM | [8] 2.04 µM | [9] 7.43 µM | [10] 8.73 µM | [11] 9.31 µM | [12] 3.96 µM | [13] 11.8 µM | [14] 6.01 µM | [15] 8.53 µM | [16] 19 µM | [17] 7.53 µM | [18] 18.7 µM | [19] 4.76 µM
7.57 µM: [5]

COc1ccc(/C=C/C(=O)c2cc(C(C)(C)C)c(O)c(C(C)(C)C)c2)cc1OC
5.68 µM: [5]
inactive: [1] 8.67 µM | [2] 14.6 µM | [3] 5.24 µM | [4] 10 µM | [6] 16.6 µM | [7] 3.12 µM | [8] 4.29 µM | [9] 61.2 µM | [10] 12.1 µM | [11] 5.9 µM | [12] 2.56 µM | [13] 6.52 µM | [14] 12.7 µM | [15] 37.5 µM | [16] 18.7 µM | [17] 8.15 µM | [18] 24.8 µM | [19] 3.29 µM

Cc1c2oc(=O)c(C#N)cc2c2ccccn12
89.9 µM: [5]
inactive: [1] > 100 µM | [2] > 100 µM | [3] 25.8 µM | [4] > 100 µM | [6] > 100 µM | [7] > 100 µM | [8] > 100 µM | [9] 97.3 µM | [10] 7.64 µM | [11] > 100 µM | [12] > 100 µM | [13] 20.2 µM | [14] 81.7 µM | [15] > 100 µM | [16] > 100 µM | [18] > 100 µM | [19] > 100 µM

COc1ccc(/C=C/C(=O)/C=C/c2ccc(OC)cc2)cc1
inactive: [1] 46.5 µM | [2] 89.1 µM | [3] 29.4 µM | [4] > 100 µM | [6] 32.5 µM | [7] 31.6 µM | [8] 47.8 µM | [9] > 100 µM | [10] > 100 µM | [11] 43.5 µM | [12] 5.01 µM | [13] > 100 µM | [14] 26.4 µM | [15] > 100 µM | [16] > 100 µM | [17] > 100 µM | [18] > 100 µM | [19] 55.3 µM
47.8 µM: [5]

Nn1c(-c2ccccc2)n[nH]c1=O
> 100 µM: [5]
inactive: [1] > 100 µM | [2] > 100 µM | [3] > 100 µM | [4] > 100 µM | [6] > 100 µM | [7] > 10 µM | [8] > 100 µM | [9] 80.2 µM | [10] > 100 µM | [11] > 100 µM | [12] > 100 µM | [13] > 100 µM | [14] > 100 µM | [15] > 100 µM | [16] > 100 µM | [17] > 100 µM | [18] > 100 µM | [19] > 100 µM

CC(=O)NC1=C(NCCCl)C(=O)c2ccccc2C1=O
32.1 µM: [5]
inactive: [1] 50.5 µM | [2] 42.8 µM | [3] 47.9 µM | [4] 30.5 µM | [6] 56.6 µM | [7] 27.9 µM | [8] 35.2 µM | [9] 13.9 µM | [10] 26.1 µM | [11] 44.6 µM | [12] 40.9 µM | [13] 37.4 µM | [14] 40.8 µM | [15] 72.3 µM | [16] 59.2 µM | [17] 34.7 µM | [18] 58.3 µM | [19] 25.1 µM

O=c1[nH]c(=O)n(C2CC(O)C(CO)O2)c2nc3ccc4ccccc4c3nc12 (stereo not given)
62.2 µM: [5]
inactive: [1] 74.3 µM | [2] > 100 µM | [3] 66.4 µM | [4] > 100 µM | [6] 25.6 µM | [7] 45.2 µM | [8] 46.3 µM | [9] > 100 µM | [10] > 100 µM | [11] 67.9 µM | [12] 22.8 µM | [13] 53.6 µM | [14] 92.9 µM | [15] 94.2 µM | [16] > 100 µM | [17] 51.2 µM | [18] 30.5 µM | [19] 93.8 µM

CCCc1nc2c(n1CC)C(=O)c1ccccc1C2=O
inactive: [1] > 100 µM | [2] 40.3 µM | [3] 79.8 µM | [4] 74.5 µM | [6] > 10 µM | [7] 31.1 µM | [8] 51.1 µM | [9] 22.2 µM | [10] 39.4 µM | [11] 32.1 µM | [12] 31.3 µM | [13] 56 µM | [14] 63.5 µM | [15] 82.2 µM | [16] 21.7 µM | [17] 30.5 µM | [18] 86.9 µM | [19] 28.5 µM
28.3 µM: [5]

O=C(/C=C/C=C/c1ccccc1)c1ccccc1
12.2 µM: [5]
inactive: [1] 14.3 µM | [3] 18.8 µM | [4] 17.3 µM | [6] 18.4 µM | [7] 17.1 µM | [8] 16.3 µM | [9] 10 µM | [11] 17.7 µM | [12] 16.1 µM | [14] 17.3 µM | [15] 17.5 µM | [16] 22.2 µM | [17] 15.9 µM | [18] 17.9 µM | [19] 18.4 µM

CCOC(=O)CON=c1c2ccccc2ccc2ccccc12
> 100 µM: [5]
inactive: [1] > 100 µM | [2] > 100 µM | [3] > 100 µM | [4] > 100 µM | [6] > 100 µM | [7] > 100 µM | [8] > 100 µM | [9] > 100 µM | [10] > 100 µM | [11] > 100 µM | [12] > 100 µM | [13] > 100 µM | [14] > 100 µM | [15] > 100 µM | [16] > 100 µM | [17] > 100 µM | [18] > 100 µM | [19] > 100 µM

CCCN1C(=O)CN(S(=O)(=O)c2ccc(Cl)cc2)C1=O
inactive: [1] > 100 µM | [2] > 100 µM | [3] > 100 µM | [4] > 100 µM | [6] > 100 µM | [7] > 100 µM | [8] > 100 µM | [9] > 100 µM | [10] > 100 µM | [11] > 100 µM | [12] > 100 µM | [13] > 100 µM | [14] > 100 µM | [15] > 100 µM | [16] > 100 µM | [17] > 100 µM | [18] > 100 µM | [19] > 100 µM
> 100 µM: [5]

CCCCCc1c2nc(c(CCCCC)c3ccc([nH]3)c(CCCCC)c3nc(c(CCCCC)c4ccc1[nH]4)C=C3)C=C2
inactive: [1] > 100 µM | [2] > 100 µM | [3] > 100 µM | [4] > 100 µM | [6] > 100 µM | [7] > 100 µM | [8] > 100 µM | [9] > 100 µM | [10] > 100 µM | [11] > 100 µM | [12] > 100 µM | [13] > 100 µM | [14] > 100 µM | [15] > 100 µM | [16] > 100 µM | [17] > 100 µM | [18] > 100 µM | [19] > 100 µM
> 100 µM: [5]
